Reference: US5721207A, “Method for treatment of pain” (Innapharma, Inc., priority 1995, dated 1998)
Read-outs that look alike come from different tables or passages of the source.

What was measured:
rat [1] = system: rat
Description: Intrathecal catheters were surgically implanted in the rats after application of anesthetic (Nembutal, 30 mg/kg, intraperitoneal) 5-7 days prior to the test procedure. The 5-7 day period prior to testing allowed for full recovery from the surgical procedures. […] Each catheter was anchored to the skull with cyanoacrylate adhesive, and the skull was closed with wound clips. The free end of each catheter was heat annealed; when compositions were to be injected via the intrathecal route each composition was introduced therein using a Hamilton needle inserted into the sealed catheter.
Pain sensitivity was assessed using a standard analgesiometric hot plate test (Woolfe and MacDonald (1944) J. Pharmacol. Exp. Ther. 80:300). The hot plate response was determined by placing a rat on a 55° C. copper hot plate enclosed in a plexiglass cylinder.
Because of the technical demands of these experiments, no more than 8-9 rats were tested on a given day. Sufficient animals were studied to obtain 10-11 evaluable rats per test condition. On the study day, animals were tested for baseline hot plate responses, and then received bolus injections of test analgesic or physiological saline (control). Hot plate responses were assessed again at 15 min, 30 min, 1 hr, 3 hr, 6 hr and 24 hr after intrathecal injection of test compound or vehicle control.
Ninety-six (96) rats, ranging in weight from 320 g to 420 g, were used in this study. Catheters were implanted and recovery was allowed for as described hereinabove. […] Drug or saline vehicle doses were administered using Hamilton needles inserted into the catheters, with a dose volumes of 37.5 μL/kg followed by a 10 μL saline catheter wash-out. Baseline (pre-drug) and responses at 15 min, 30 min, 1 hr, 3 hr, 6 hr and 24 hr after drug or vehicle injection were determined.

rat [2] = test: Rat hot plate test, 10 single daily intrathecal doses of elcatonin over 11 days (Example 12); format: in vivo; settings: 4.4 IU/kg intrathecal, 10 daily doses in two 5 day phases (FIG. 8)
Description: Intrathecal catheters were implanted in rats as described hereinabove, and a 7-10 day period thereafter allowed for full recovery from the surgical procedures. Nine rats were assigned to three treatment groups of three rats per group. The study is conducted in two 5 day treatment phases separated by a 48 hour nontreatment interval. Treatment Group I rats receive no treatment (sham injection). In each treatment phase, Group II rats received five consecutive daily intrathecal doses of sterile physiological saline (vehicle control), for a total of 10 injections per study treatment.
For each treatment, hot plate latencies are determined as described in Example 5 hereinabove at 0 minutes (predose, baseline), 1 hour, 3 hours, and 24 hours following injection on the 1st, 3rd, 5th, 7th, 9th and 11th study days (Table 4).

[3] = intrathecal, 30 min post-injection

[Des-Cys^1,ASU^7 ]-Calcitonin, Eel [Elcatonin]
Hot Plate Latency (Mean ± SEM) (rat [1]; 2.4 IU/kg (0.39 μg/kg, 0.12 nmol/kg) intrathecal single, 0 hr (baseline)): 13.54 ± 1.91 s | Hot Plate Latency (Mean ± SEM) (rat [1]; 2.4 IU/kg (0.39 μg/kg, 0.12 nmol/kg) intrathecal single, 0.25 hr): 19.70 ± 1.75 s | Hot Plate Latency (Mean ± SEM) (rat [1]; 2.4 IU/kg (0.39 μg/kg, 0.12 nmol/kg) intrathecal single, 0.5 hr): 23.90 ± 3.12 s | Hot Plate Latency (Mean ± SEM) (rat [1]; 2.4 IU/kg (0.39 μg/kg, 0.12 nmol/kg) intrathecal single, 1 hr): 24.68 ± 1.80 s | Hot Plate Latency (Mean ± SEM) (rat [1]; 2.4 IU/kg (0.39 μg/kg, 0.12 nmol/kg) intrathecal single, 3 hr): 13.0 ± 0.7 s | Hot Plate Latency (Mean ± SEM) (rat [1]; 2.4 IU/kg (0.39 μg/kg, 0.12 nmol/kg) intrathecal single, 6 hr): 12.1 s | Hot Plate Latency (Mean ± SEM) (rat [1]; 2.4 IU/kg (0.39 μg/kg, 0.12 nmol/kg) intrathecal single, 24 hr): 10.8 ± 0.7 s | response at the lowest dose (rat [1]; 2.4 IU/kg or 0.39 μg/kg intrathecal): slightly smaller response | differences in hot plate latencies between doses (rat [1]; 3.6-6.0 IU/kg intrathecal): no apparent differences in hot plate latencies | Hot Plate Latency (Mean ± SEM) (rat [1]; 3.6 IU/kg (0.58 μg/kg, 0.18 nmol/kg) intrathecal single, 0 hr (baseline)): 12.92 ± 1.4 s | Hot Plate Latency (Mean ± SEM) (rat [1]; 3.6 IU/kg (0.58 μg/kg, 0.18 nmol/kg) intrathecal single, 0.25 hr): 21.04 ± 2.22 s | Hot Plate Latency (Mean ± SEM) (rat [1]; 3.6 IU/kg (0.58 μg/kg, 0.18 nmol/kg) intrathecal single, 0.5 hr): 26.03 ± 3.08 s | Hot Plate Latency (Mean ± SEM) (rat [1]; 3.6 IU/kg (0.58 μg/kg, 0.18 nmol/kg) intrathecal single, 1 hr): 26.08 ± 3.69 s | Hot Plate Latency (Mean ± SEM) (rat [1]; 3.6 IU/kg (0.58 μg/kg, 0.18 nmol/kg) intrathecal single, 3 hr): 23.14 ± 3.05 s | Hot Plate Latency (Mean ± SEM) (rat [1]; 3.6 IU/kg (0.58 μg/kg, 0.18 nmol/kg) intrathecal single, 6 hr): 20.37 s | Hot Plate Latency (Mean ± SEM) (rat [1]; 3.6 IU/kg (0.58 μg/kg, 0.18 nmol/kg) intrathecal single, 24 hr): 15.79 ± 2.40 s | Hot Plate Latency (Mean ± SEM) (rat [1]; 4.4 IU/kg ([…], 0.22 nmol/kg) intrathecal single, 0 hr (baseline)): 13.68 ± 1.10 s | Hot Plate Latency (Mean ± SEM) (rat [1]; 4.4 IU/kg ([…], 0.22 nmol/kg) intrathecal single, 0.25 hr): 21.89 ± 3.12 s | Hot Plate Latency (Mean ± SEM) (rat [1]; 4.4 IU/kg ([…], 0.22 nmol/kg) intrathecal single, 0.5 hr): 26.03 ± 3.36 s | Hot Plate Latency (Mean ± SEM) (rat [1]; 4.4 IU/kg ([…], 0.22 nmol/kg) intrathecal single, 1 hr): 26.20 ± 2.37 s | Hot Plate Latency (Mean ± SEM) (rat [1]; 4.4 IU/kg ([…], 0.22 nmol/kg) intrathecal single, 3 hr): 21.11 ± 2.18 s | Hot Plate Latency (Mean ± SEM) (rat [1]; 4.4 IU/kg ([…], 0.22 nmol/kg) intrathecal single, 6 hr): 20.02 s | Hot Plate Latency (Mean ± SEM) (rat [1]; 4.4 IU/kg ([…], 0.22 nmol/kg) intrathecal single, 24 hr): 11.78 ± 1.75 s | Hot Plate Latency (Mean ± SEM) (rat [1]; 5.2 IU/kg (0.84 μg/kg, 0.26 nmol/kg) intrathecal single, 0 hr (baseline)): 13.41 ± 0.92 s | Hot Plate Latency (Mean ± SEM) (rat [1]; 5.2 IU/kg (0.84 μg/kg, 0.26 nmol/kg) intrathecal single, 0.25 hr): 27.89 ± 3.10 s | Hot Plate Latency (Mean ± SEM) (rat [1]; 5.2 IU/kg (0.84 μg/kg, 0.26 nmol/kg) intrathecal single, 0.5 hr): 31.55 ± 4.17 s | Hot Plate Latency (Mean ± SEM) (rat [1]; 5.2 IU/kg (0.84 μg/kg, 0.26 nmol/kg) intrathecal single, 1 hr): 25.82 ± 3.79 s | Hot Plate Latency (Mean ± SEM) (rat [1]; 5.2 IU/kg (0.84 μg/kg, 0.26 nmol/kg) intrathecal single, 3 hr): 28.81 ± 3.41 s | Hot Plate Latency (Mean ± SEM) (rat [1]; 5.2 IU/kg (0.84 μg/kg, 0.26 nmol/kg) intrathecal single, 6 hr): 22.97 s | Hot Plate Latency (Mean ± SEM) (rat [1]; 5.2 IU/kg (0.84 μg/kg, 0.26 nmol/kg) intrathecal single, 24 hr): 12.36 ± 1.69 s | Hot Plate Latency (Mean ± SEM) (rat [1]; 6.0 IU/kg (0.97 μg/kg, 0.30 nmol/kg) intrathecal single, 0 hr (baseline)): 11.38 ± 0.89 s | Hot Plate Latency (Mean ± SEM) (rat [1]; 6.0 IU/kg (0.97 μg/kg, 0.30 nmol/kg) intrathecal single, 0.25 hr): 25.22 ± 4.13 s | Hot Plate Latency (Mean ± SEM) (rat [1]; 6.0 IU/kg (0.97 μg/kg, 0.30 nmol/kg) intrathecal single, 0.5 hr): 28.91 ± 3.40 s | Hot Plate Latency (Mean ± SEM) (rat [1]; 6.0 IU/kg (0.97 μg/kg, 0.30 nmol/kg) intrathecal single, 1 hr): 24.48 ± 3.35 s | Hot Plate Latency (Mean ± SEM) (rat [1]; 6.0 IU/kg (0.97 μg/kg, 0.30 nmol/kg) intrathecal single, 3 hr): 26.60 ± 3.87 s | Hot Plate Latency (Mean ± SEM) (rat [1]; 6.0 IU/kg (0.97 μg/kg, 0.30 nmol/kg) intrathecal single, 6 hr): 24.69 s | Hot Plate Latency (Mean ± SEM) (rat [1]; 6.0 IU/kg (0.97 μg/kg, 0.30 nmol/kg) intrathecal single, 24 hr): 11.17 ± 1.80 s | hot plate analgesia compared with morphine sulfate (49.42-164.73 nmol/kg) (rat [1]; 6 hours post-injection, all tested doses of elcatonin (0.12-0.30 nmol/kg)): more potent hot plate analgesia than all tested doses of morphine sulfate | duration of analgesia, elcatonin compared with morphine (rat [1]; intrathecal): generally longer duration of analgesic activity than morphine | molar concentration producing potent analgesia, lower than morphine sulfate by (rat [1]; intrathecal): approximately 1000 fold | dose approximately equivalent to 164.73 nmol/kg morphine sulfate (125.0 μg/kg) (rat [1]; [3]): ~0.18 nmol/kg | dose producing a hot plate latency similar to 98.84 nmol/kg morphine sulfate (75.0 μg/kg) (rat [1]; [3]): ~0.12 nmol/kg | onset of antinociception/analgesia post-injection (rat [1]; intrathecal, all tested doses): ≤ 15 min | time of peak antinociception (rat [1]; intrathecal, all tested doses (2.4-6.0 IU/kg)): 30 to 60 min | analgesia compared to intrathecal morphine (rat [1]; rat hot plate, intrathecal): dramatically improved analgesia | analgesic effect over time (rat [2]): cumulative analgesic effect over time | hot plate latency (rat [2]): hot plate latency is increased
